The results in this text go back to publication PMC6837341, “Evolutionarily conserved susceptibility of the mitochondrial respiratory chain to SDHI pesticides and its consequence on the impact of SDHIs on human cultured cells” (PLoS ONE, 2019).

The structures appear in SMILES notation. Like-named read-outs stand apart in the source and are kept apart here.

In general, IC50 refers to the concentration needed to halve the response being measured. A higher IC50 goes with lower potency.

In data set [1] the target is T1, glycerol-3-phosphate cytochrome c reductase (G3PDH+CIII) (Lumbricus terrestris, UniProt Q34945).
T1 sequence (Q34945 1-379): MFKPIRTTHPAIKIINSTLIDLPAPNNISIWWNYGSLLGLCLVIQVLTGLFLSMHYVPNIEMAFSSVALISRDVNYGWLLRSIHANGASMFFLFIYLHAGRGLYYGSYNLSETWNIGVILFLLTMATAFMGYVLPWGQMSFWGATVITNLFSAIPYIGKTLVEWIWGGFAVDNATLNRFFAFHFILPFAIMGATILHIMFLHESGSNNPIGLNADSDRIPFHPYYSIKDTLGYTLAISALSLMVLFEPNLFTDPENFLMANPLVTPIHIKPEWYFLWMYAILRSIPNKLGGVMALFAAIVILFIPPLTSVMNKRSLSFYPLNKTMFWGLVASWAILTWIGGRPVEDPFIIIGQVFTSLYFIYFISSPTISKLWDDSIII
In words: GCCR activity, earthworm homogenate. Format: biochemical. The protocol: L. terrestris individuals (n = 5) were collected manually in a household compost in Epernon (France 28230) and identified by the person (Paule Bénit) in charge of this compost. Before use, the worms were washed 5 times with 1× phosphate-buffered saline. A fresh homogenate was prepared from the segments located between the prostomium and clitellum of the 5 individuals. Tissues were placed in 500 μl of an ice-cold medium consisting of 20 mM Tris (pH 7.2), 0.25 M sucrose, 40 mM KCl, 2 mM EGTA, and 1 mg/ml BSA and homogenized using a 1-ml glass-glass Potter-Elvehjem homogenizer. Low-speed centrifugation at 1,500 g for 5 min allowed heavy debris to be discarded. The supernatant was distributed as 50-μl aliquots and kept frozen at -80°C.
(§1) RC enzyme activities were spectrophotometrically measured using a pseudo-double-wavelength spectrophotometer (Cary 60, Agilent). Malonate-sensitive succinate quinone dichlorophenolindophenol (DCPIP) reductase (SQDR), as an indicator of the activity of the isolated SDH enzyme (isolated CII), and glycerol-3-phosphate quinone DCPIP reductase (GQDR), as a measure of the activity of the isolated glycerol-3-phosphate dehydrogenase (G3PDH), were assayed as previously described. […] With this aim, we measured the malonate-sensitive succinate cytochrome c reductase (SDH+CIII), glycerol-3-phosphate cytochrome c reductase (G3PDH+CIII) and antimycin-sensitive quinol cytochrome c reductase (CIII) as previously described.
(§2) The effects of eight different SDHIs (up to 500 μM; S2 Fig) were determined on four different biological materials. Because IC50 are known to be affected by the actual absolute activity of the tested enzyme, these IC50 were quantified using similar levels of SDH enzyme activity during the assay. IC50 values were determined using the AAT Bioquest IC50 calculator tool (https://www.aatbio.com/tools/ic50-calculator).

In data set [2] the target is T2, succinate cytochrome c reductase (SDH+CIII) (Apis mellifera, UniProt A0A8U0WTA3+A0A8U0YBJ8+A0A8U1DE73).
T2 sequence (A0A8U1DE73 27-278): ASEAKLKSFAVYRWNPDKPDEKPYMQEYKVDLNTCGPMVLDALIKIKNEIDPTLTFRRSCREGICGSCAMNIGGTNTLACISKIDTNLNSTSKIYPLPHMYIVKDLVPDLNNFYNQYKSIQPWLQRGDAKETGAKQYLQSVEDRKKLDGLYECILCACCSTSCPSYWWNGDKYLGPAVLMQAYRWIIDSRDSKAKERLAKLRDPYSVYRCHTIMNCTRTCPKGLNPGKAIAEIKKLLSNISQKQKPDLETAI
T2 sequence (A0A8U0YBJ8 36-174): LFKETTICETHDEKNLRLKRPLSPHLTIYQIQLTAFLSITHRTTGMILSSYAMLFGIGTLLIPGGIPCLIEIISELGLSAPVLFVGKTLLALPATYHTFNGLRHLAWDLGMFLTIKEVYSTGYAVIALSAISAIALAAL
T2 sequence (A0A8U0WTA3 79-201): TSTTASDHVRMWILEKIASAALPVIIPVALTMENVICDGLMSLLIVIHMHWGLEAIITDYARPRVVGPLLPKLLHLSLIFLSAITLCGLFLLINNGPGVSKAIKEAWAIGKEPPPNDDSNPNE
Description: SCCR activity, honeybee crude mitochondria. Format: biochemical. The protocol: A. mellifera individuals (n = 5) were a kind gift from Jacques Kemp (beekeeper; Saint-Rémy-lès-Chevreuse, Yvelines, France). Whole bodies of individuals frozen in dry ice, except heads, were homogenized using a 1 ml glass-glass Potter-Elvehjem homogenizer in an ice-cold medium consisting of 20 mM Tris (pH 7.2), 0.25 M sucrose, 40 mM KCl, 2 mM EGTA, and 1 mg/ml BSA. The homogenate was centrifuged at 1,500 g for 5 min. The mitochondria contained in the supernatant were spun down at 10,000 g for 10 min. The pellet of crude mitochondria was distributed as 20-μl aliquots and kept frozen at -80°C.
as §1, §2

Data set [3] in a line: Acceptable Daily Intake according to European regulations and corresponding blood concentration. The protocol: It is extremely hazardous to compare the IC50 values obtained in vitro under laboratory conditions with the concentrations of SDHI that might result from the application of these pesticides on crops. One can however reliably determine the concentration of SDHI at the outlet of the diffusion nozzles. In the case of bixafen, it is about 0.6 to 1.8 mM according to the recommendations distributed to farmers, resulting in a cloud of nebulization, corresponding to 75–125 g/hectare of bixafen. The final exposition depends on numerous factors hard to control, including the spreading conditions, the nature of the ground, its vegetation cover, etc. From a regulatory point of view, the ADI for example for boscalid and bixafen amounts to 0.04 and 0.02 mg / kg / day, respectively (see legend S2 Fig). For an average adult (60 kg / blood volume 5 l), this correspond to a blood concentration of approximately 1.40 and 0.58 μM, respectively.
Supplementary file pone.0224132.s003.pdf: S2 Fig SDHI molecular structure. The yellow and blue parts for each molecule are reminiscent of the predecessor carboxin structure (top). […] ADI; Acceptable Daily Intake according to European regulations. (PDF) Click here for additional data file.

For the compound `Cn1cc(C(=O)Nc2ccccc2-c2cc(F)c(F)c(F)c2)c(C(F)F)n1` [Fluxapyroxad, fluxapyroxad], the IC50 in data set [1] was over 500 µM; in data set [2] it was 11.7 µM. Besides, the “Blood concentration corresponding to the ADI” value in data set [3] amounted to 580 nM.

For `Cc1nn(C)c(F)c1C(=O)Nc1ccccc1C(C)CC(C)C` (centres unmarked) [Penflufen, penflufen], the IC50 in data set [1] is over 500 µM; in data set [2], 7.5 µM.

For the compound `Cn1cc(C(=O)Nc2ccc(F)cc2-c2ccc(Cl)c(Cl)c2)c(C(F)F)n1` [Bixafen, bixafen], the IC50 in data set [1] turned out to be 450 µM; in data set [2] it was 3.3 µM. The “Blood concentration corresponding to the ADI” value in data set [3] came out at 580 nM.

Turning to `CC(C)C1C2CCC1c1c(NC(=O)c3cn(C)nc3C(F)F)cccc12` (centres unmarked) [Isopyrazam, isopyrazam], the IC50 in data set [1] turned out to be 83 µM; in data set [2], 5.1 µM.

For the compound `O=C(Nc1ccccc1-c1ccc(Cl)cc1)c1cccnc1Cl` [Boscalid, boscalid], the “Blood concentration corresponding to the ADI” value in data set [3] (average adult 60 kg, blood volume 5 l) is reported as “approximately 1.40 μM”.
